The values below come from patent US12497365B2, “4-pyridinyl formamide compound or derivative thereof, preparation method therefor, herbicidal composition and use thereof” (Qingdao Kingagroot Chemical Compound Co., Ltd., priority 2019, dated 2025).

Common to all, as to assay: Weeding effect in post-emergence stage
Holding throughout (assay type): in vivo
Conditions in all cases: active ingredient 2000 g/ha, 3 weeks after application, fresh weight control rate

In assay [1] the test system is Descurainia sophia. The procedure, abridged:
(§1)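 Weeds sown in soil-filled pots under 0.5-2 cm cover were grown in a greenhouse and sprayed at the 2-3 leaf stage, 2 weeks after sowing. Compounds in acetone with Tween 80 and 1.5 liter/ha methyl oleate concentrate were applied at 2000, 1000, 500, 250 or 125 g/ha. Fresh weight control rate was scored after 3 weeks.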

The subject of assay [2] is Abutilon theophrasti. The procedure, abridged: as §1
The test system of assay [3] is Amaranthus retroflexus L. The procedure, abridged:
as §1

In assay [4] the test system is Chenopodium album. The procedure, abridged: as §1

With `Cn1nnnc1NC(=O)c1ccnc(-c2ccc(C(F)(F)F)nc2)c1Cl` [Compound 1-142], the “Weeding effect, activity level (growth control rate), Descurainia sophia” value (“Weeding effect … Descurainia sophia” below) in assay [1] is reported as 5 (Level 5: growth control rate is above 85%). Moreover, the “Weeding effect, activity level (growth control rate), Abutilon theophrasti” value (shortened to “Weeding effect … Abutilon theophrasti”) in assay [2] is on record as 5 (Level 5: growth control rate is above 85%). Moreover, the “Weeding effect, activity level (growth control rate), Amaranthus retroflexus L.” value (shortened to “Weeding effect … Amaranthus retroflexus L.”) in assay [3] is 5 (Level 5: growth control rate is above 85%). Besides, the “Weeding effect, activity level (growth control rate), Chenopodium album” value (“Weeding effect … Chenopodium album” below) in assay [4] was 5 (Level 5: growth control rate is above 85%).

For the compound `COc1ccc(-c2nccc(C(=O)Nc3nnnn3C)c2Cl)cn1` [Compound 1-143], the “Weeding effect … Descurainia sophia” value in assay [1] was 5 (Level 5: growth control rate is above 85%). Besides, the “Weeding effect … Abutilon theophrasti” value in assay [2] is listed as 5 (Level 5: growth control rate is above 85%). The “Weeding effect … Amaranthus retroflexus L.” value in assay [3] is 5 (Level 5: growth control rate is above 85%). Further, the “Weeding effect … Chenopodium album” value in assay [4] was 5 (Level 5: growth control rate is above 85%).

`CCOc1ccc(-c2nccc(C(=O)Nc3nnnn3C)c2Cl)cn1` [Compound 1-144]: the “Weeding effect … Descurainia sophia” value in assay [1] is on record as 5 (Level 5: growth control rate is above 85%). The “Weeding effect … Abutilon theophrasti” value in assay [2] is recorded as 5 (Level 5: growth control rate is above 85%). For the same compound, in assay [3], the “Weeding effect … Amaranthus retroflexus L.” value was 5 (Level 5: growth control rate is above 85%). In assay [4], the “Weeding effect … Chenopodium album” value is on record as 5 (Level 5: growth control rate is above 85%).

As to `Cn1nnnc1NC(=O)c1ccnc(-c2cncc(N)c2)c1Cl` [Compound 1-145], in assay [1], the “Weeding effect … Descurainia sophia” value was 5 (Level 5: growth control rate is above 85%). For the same compound, the “Weeding effect … Abutilon theophrasti” value in assay [2] is on record as 5 (Level 5: growth control rate is above 85%). The “Weeding effect … Amaranthus retroflexus L.” value in assay [3] is reported as 5 (Level 5: growth control rate is above 85%). In addition, the “Weeding effect … Chenopodium album” value in assay [4] was 5 (Level 5: growth control rate is above 85%).

Consider `Cn1nnnc1NC(=O)c1ccnc(-c2ccc(N3CCOCC3)nc2)c1Cl` [Compound 1-146], for which, in assay [1], the “Weeding effect … Descurainia sophia” value is 5 (Level 5: growth control rate is above 85%). The “Weeding effect … Abutilon theophrasti” value in assay [2] is 5 (Level 5: growth control rate is above 85%). Further, the “Weeding effect … Amaranthus retroflexus L.” value in assay [3] is 5 (Level 5: growth control rate is above 85%). The “Weeding effect … Chenopodium album” value in assay [4] was 5 (Level 5: growth control rate is above 85%).

Consider `Cn1nnnc1NC(=O)c1ccnc(-c2ccncc2)c1Cl` [Compound 1-147], for which the “Weeding effect … Descurainia sophia” value in assay [1] is given as 5 (Level 5: growth control rate is above 85%). Moreover, the “Weeding effect … Abutilon theophrasti” value in assay [2] was 5 (Level 5: growth control rate is above 85%). For the same compound, the “Weeding effect … Amaranthus retroflexus L.” value in assay [3] was 5 (Level 5: growth control rate is above 85%). Moreover, the “Weeding effect … Chenopodium album” value in assay [4] is given as 5 (Level 5: growth control rate is above 85%).

As to `Cn1nnnc1NC(=O)c1ccnc(-c2ccnc(C#N)c2)c1Cl` [Compound 1-148], the “Weeding effect … Descurainia sophia” value in assay [1] is reported as 5 (Level 5: growth control rate is above 85%). Besides, the “Weeding effect … Abutilon theophrasti” value in assay [2] is listed as 5 (Level 5: growth control rate is above 85%). In addition, in assay [3], the “Weeding effect … Amaranthus retroflexus L.” value is 5 (Level 5: growth control rate is above 85%). The “Weeding effect … Chenopodium album” value in assay [4] was 5 (Level 5: growth control rate is above 85%).

As for `Cn1nnnc1NC(=O)c1ccnc(-c2ccnc(F)c2)c1Cl` [Compound 1-149], in assay [1], the “Weeding effect … Descurainia sophia” value is recorded as 5 (Level 5: growth control rate is above 85%). Further, the “Weeding effect … Abutilon theophrasti” value in assay [2] is 5 (Level 5: growth control rate is above 85%). The “Weeding effect … Amaranthus retroflexus L.” value in assay [3] is recorded as 5 (Level 5: growth control rate is above 85%). Moreover, the “Weeding effect … Chenopodium album” value in assay [4] is on record as 5 (Level 5: growth control rate is above 85%).

On to `Cn1nnnc1NC(=O)c1ccnc(-c2ccncc2F)c1Cl` [Compound 1-150], for which the “Weeding effect … Descurainia sophia” value in assay [1] is on record as 5 (Level 5: growth control rate is above 85%). Further, the “Weeding effect … Abutilon theophrasti” value in assay [2] was 5 (Level 5: growth control rate is above 85%). Besides, the “Weeding effect … Amaranthus retroflexus L.” value in assay [3] is 5 (Level 5: growth control rate is above 85%). In addition, the “Weeding effect … Chenopodium album” value in assay [4] was 5 (Level 5: growth control rate is above 85%).

With `Cn1nnnc1NC(=O)c1ccnc(-c2ccnc(Cl)c2)c1Cl` [Compound 1-151], the “Weeding effect … Descurainia sophia” value in assay [1] is 5 (Level 5: growth control rate is above 85%). In assay [2], the “Weeding effect … Abutilon theophrasti” value was 5 (Level 5: growth control rate is above 85%). Besides, the “Weeding effect … Amaranthus retroflexus L.” value in assay [3] was 5 (Level 5: growth control rate is above 85%). In addition, the “Weeding effect … Chenopodium album” value in assay [4] was 5 (Level 5: growth control rate is above 85%).

Consider `Cn1nnnc1NC(=O)c1ccnc(-c2ccnc(Cl)c2Cl)c1Cl` [Compound 1-152], for which the “Weeding effect … Descurainia sophia” value in assay [1] is on record as 5 (Level 5: growth control rate is above 85%). Moreover, the “Weeding effect … Abutilon theophrasti” value in assay [2] was 5 (Level 5: growth control rate is above 85%). The “Weeding effect … Amaranthus retroflexus L.” value in assay [3] is on record as 5 (Level 5: growth control rate is above 85%). Further, in assay [4], the “Weeding effect … Chenopodium album” value is recorded as 5 (Level 5: growth control rate is above 85%).

As to `Cn1nnnc1NC(=O)c1ccnc(-c2cc(Cl)nc(Cl)c2)c1Cl` [Compound 1-153], the “Weeding effect … Descurainia sophia” value in assay [1] was 5 (Level 5: growth control rate is above 85%). The “Weeding effect … Abutilon theophrasti” value in assay [2] is on record as 5 (Level 5: growth control rate is above 85%). Besides, in assay [3], the “Weeding effect … Amaranthus retroflexus L.” value is reported as 5 (Level 5: growth control rate is above 85%). The “Weeding effect … Chenopodium album” value in assay [4] is listed as 5 (Level 5: growth control rate is above 85%).

With `Cn1nnnc1NC(=O)c1ccnc(-c2ccc(F)nn2)c1Cl` [Compound 1-154], the “Weeding effect … Descurainia sophia” value in assay [1] is on record as 5 (Level 5: growth control rate is above 85%). Besides, the “Weeding effect … Abutilon theophrasti” value in assay [2] is given as 5 (Level 5: growth control rate is above 85%). Besides, the “Weeding effect … Amaranthus retroflexus L.” value in assay [3] is 5 (Level 5: growth control rate is above 85%). For the same compound, in assay [4], the “Weeding effect … Chenopodium album” value is 5 (Level 5: growth control rate is above 85%).

As for `Cn1nnnc1NC(=O)c1ccnc(-c2ccc(C#N)nn2)c1Cl` [Compound 1-155], the “Weeding effect … Descurainia sophia” value in assay [1] is on record as 5 (Level 5: growth control rate is above 85%). Also, the “Weeding effect … Abutilon theophrasti” value in assay [2] is listed as 5 (Level 5: growth control rate is above 85%). Also, the “Weeding effect … Amaranthus retroflexus L.” value in assay [3] was 5 (Level 5: growth control rate is above 85%). Moreover, the “Weeding effect … Chenopodium album” value in assay [4] was 5 (Level 5: growth control rate is above 85%).
